Experimental findings from US20090057617A1, “Corrosion inhibitors containing anionic surfactants” (priority 2007, published 2009) are described below.

This assay can be described thus: Shell wheel test (corrosion inhibition). Conditions: 50 ppm of a 24% solution of the inhibitor; salt water/petroleum mixture 9:1, 5% NaCl, pH 3.5; 40 rpm, 70° C., 24 hours; from decrease in coupon mass, based on a blank value. The procedure:
The compounds according to the invention were tested as corrosion inhibitors in the Shell wheel test. Coupons of C steel (DIN 1.1203 with 15 cm^2 surface area) were immersed in a salt water/petroleum mixture (9:1,5% strength NaCl solution adjusted to pH 3.5 with acetic acid) and exposed to this medium at a speed of 40 rpm at 70° C. for 24 hours. The inhibitor dose was 50 ppm of a 24% solution of the inhibitor. The protection values were calculated from the decrease in the mass of the coupons, based on a blank value.

In the case of `CCCCCCCC/C=C\CCCCCCCC(=O)NC(CCSC)C(=O)[O-].[K+]` (racemic) [example 2, N-Oleoyl-DL-methionine potassium Salt], the ø protection % amounted to 69%.
